Assay results published in patent publication US20040209841A1, “Association compound of trehalose or maltitol with metal ion compound” (priority 2001, published 2004).
Where two headings read alike, the source gives them in different places.

Tests used:
[1] = pH 3.5
Procedure: Effects of trehalose, maltitol, and other saccharides on the solubilities of calcium-organic acid salts were investigated as follows. […] Successively, five grams of commercially available calcium DL-lactate pentahydrate or calcium gluconate monohydrate, used as calcium-organic acid salts, were added to each saccharide solution, followed by suspension. Thereafter, the pH of each solution was adjusted to 3.5, and the solution was filled up to give a volume of 50 ml with deionized water. After stirring at 25° C. for 16 hours, insoluble calcium-organic acid salts were removed by centrifuging (15,000 rpm for 30 minutes). The pHs of the resulting supernatants were measured. The calcium concentrations of the supernatant were measured using an atomic adsorption photometer described in Experiment 5. The solution prepared with no saccharide was also measured for calcium concentration in the same manner as control.

[2] = Suppressing effect on the oxidation of ferrous ion (Nitroso-DMAP method); type: physicochemical; details: for Amount of Fe2+ ion (mg/ml) After light-irradiation: 37° C. four hours, light of about 9,000 luxes, 5% (w/v) saccharide; for Amount of Fe2+ ion (mg/ml) Before light-irradiation: ferrous chloride 1% (w/v) as ferrous ion + 5% (w/v) saccharide
Procedure: Generally, ferrous ion (divalent, Fe^2+) and ferric ion (trivalent, Fe^3+) are known as ions of iron element. Ferrous ion is easily oxidized with light or heat and converted to ferric ion. Effects of trehalose and maltitol on the phenomenon were investigated as follows. An aqueous solution, comprising ferrous chloride (FeCl2) tetrahydrate corresponding to the amount of 1% (w/v) as ferrous ion, and comprising trehalose or maltitol corresponding to the amount of 5% (w/v), d.s.b., was prepared as a test solution. While, a solution, comprising ferrous chloride only with the same concentration to the test solution, was prepared as a control solution. After preparing the test and control solutions, small portions of which were sampled respectively, and the amount of ferrous ion was measured by the Nitroso-DMAP method described later. Successively, 10 ml each of the test and control solution was placed separately in a 20 ml-vial and sealed. After preserving these vials at 37° C. for four hours with irradiating a light of about 9,000 luxes, the amount of ferrous ion in each solution was measured by the Nitroso-DMAP method. Measurement by the Nitroso-DMAP method was carried out as follows. After diluting the test or control solution accurately by 100-fold, 0.5 ml of the dilute was placed in a 50 ml-volumetric flask. […] After the above procedure, the absorbance at 750 nm (within the visible light range) of the solution was measured. The standard solutions, prepared by diluting stepwise a ferrous chloride solution with known concentration, were used for the measurement in the same manner to obtain a standard curve for quantitative analysis. The amount of ferrous ion of the test or the control solution was determined with the standard curve.

[3] = Suppressing effect on the deterioration of ascorbic acid under the presence of metal ion (degree of coloring); type: physicochemical; details: 50° C.; for Degree of coloring (Abs. at 420 nm) Preserved for 96 hrs: 14.8 mM AsA + 10 mM FeCl2 + 100 mM saccharide
Procedure: L-Ascorbic acid deteriorates rapidly by the oxidative degradation in the presence of iron and copper ions and causes the browning. The effects of trehalose and maltitol on the phenomenon were investigated as follows. Ten kinds of aqueous solutions having respective compositions described in Table 12 were prepared. Aqueous solutions of L-ascorbic acid alone or L-ascorbic acid and metal ion compounds were used as controls. The test solutions were prepared by adding trehalose or maltitol to the control solutions. Ten milliliters of each of these test and control solutions were placed into different 20 ml-vials and sealed. The vials were preserved at 50° C. The control and test solutions, containing ferrous chloride, and those containing ferric chloride or copper sulfate were preserved for 96 hours and 40 hours, respectively. After the preservation, the degree of coloring of each solution was measured. In the case of a control solution containing L-ascorbic acid alone, the degrees of coloring were measured at the preservation periods of 40 hours and 96 hours. The absorbance at 420 nm (within the visible light range) of each sample was measured as the degree of coloring.

[4] = Hygroscopicity (deliquescence) test; type: physicochemical; details: for Moisture content/g-sample: 25° C.
Procedure: A dried bittern powder was prepared by drying bittern solution in vacuo at 60° C. for 15 hours, pulverized, and dried in a usual manner for use as a control. The moisture content (weight of moisture per one gram of the sample) of each sample was measured by conventional drying loss method. […] The weight of the content in each cup was measured at the initiation of preservation (0 day preservation), and 1, 2, 4, and 7 days after the initiation. The amount of moisture per one gram of each at sample after 1 to 7 days preservation was calculated based on the assumption that the increased amount measured to that of 0 day preservation was the amount of moisture absorbed by each sample.

[5] = Change of solubility of metal ion compounds by the association with trehalose (precipitation of crystal); type: physicochemical
Procedure: The changes of solubility in water of trehalose and/or metal ion compounds were examined under coexistence of trehalose and metal ion compounds. […] Solutions prepared by dissolving the same amount of trehalose only or that of metal ion compounds only were prepared as controls. After dissolving the contents completely, all the beakers were allowed to stand at room temperature (25° C.) for 24 hours. Successively, precipitation of crystals was judged by macroscopic observation. In the case of precipitating crystals, the formed crystals were collected and analyzed for those component(s) by conventional method.

[6] = 14.8 mM AsA + 10 mM CuSO4 + 100 mM saccharide
[7] = 14.8 mM AsA + 10 mM FeCl3 + 100 mM saccharide
[8] = 0.1 mole metal ion compound only, 30 grams of water, 25° C. 24 hours

SMILES: OC[C@@H](O)[C@@H](O[C@H]1O[C@H](CO)[C@@H](O)[C@H](O)[C@H]1O)[C@H](O)[C@@H](O)CO [Maltitol, maltitol]
- Relative conc. (%), Calcium gluconate [1]: 128%
- Relative conc. (%), Calcium lactate [1]: 123%
- increase of calcium concentration in the supernatant in comparison with control, calcium gluconate [1]: 28%
- increase of calcium concentration in the supernatant in comparison with control, calcium lactate [1]: 23%
- Amount of Fe2+ ion (mg/ml) After light-irradiation [2]: 4.3 mg/mL
- Amount of Fe2+ ion (mg/ml) Before light-irradiation [2]: 10.2 mg/mL
- Degree of coloring (Abs. at 420 nm) Preserved for 40 hrs [3, 6]: 0.258
- Degree of coloring (Abs. at 420 nm) Preserved for 96 hrs [3]: 0.291
- Degree of coloring (Abs. at 420 nm) Preserved for 40 hrs [3, 7]: 0.198

SMILES: O.O.[Ca+2].[Cl-].[Cl-] [CaCl2 · 2H2O, calcium chloride dihydrate]
- moisture content (weight of moisture per one gram of the sample) ([4]; before preservation, drying loss method): 0.245 g
- Moisture content/g-sample ([4]; relative humidity 33.0%, 0 day): 0.245 g
- Moisture content/g-sample ([4]; relative humidity 33.0%, 1 day): 0.289 g
- Moisture content/g-sample ([4]; relative humidity 33.0%, 2 days): 0.312 g
- Moisture content/g-sample ([4]; relative humidity 33.0%, 3 days): 0.343 g
- Moisture content/g-sample ([4]; relative humidity 33.0%, 7 days): 0.364 g
- Moisture content/g-sample ([4]; relative humidity 52.8%, 0 day): 0.245 g
- Moisture content/g-sample ([4]; relative humidity 52.8%, 1 day): 0.319 g
- Moisture content/g-sample ([4]; relative humidity 52.8%, 2 days): 0.359 g
- Moisture content/g-sample ([4]; relative humidity 52.8%, 3 days): 0.405 g
- Moisture content/g-sample ([4]; relative humidity 52.8%, 7 days): 0.430 g

SMILES: O.O.O.O.O.O.[Cl][Ni][Cl] [Nickel chloride, nickel chloride hexahydrate]
- Precipitation of crystal In the absence of trehalose [5]: Precipitated
- Precipitation of crystal In the presence of trehalose [5]: None

SMILES: O.O.O.O.[Cl][Mn][Cl] [Manganese chloride, manganese chloride tetrahydrate]
- Precipitation of crystal In the presence of trehalose ([5]; 0.1 mole metal ion compound + 0.1 mole trehalose, 30 grams of water, room temperature (25° C.) 24 hours, macroscopic observation): None
- Precipitation of crystal In the absence of trehalose [5, 8]: Precipitated

SMILES: O.O.O.O.[Cl][Fe][Cl] [Ferrous chloride, ferrous chloride tetrahydrate]
- Precipitation of crystal In the absence of trehalose [5, 8]: Precipitated

SMILES: OC[C@H]1O[C@H](O[C@H]2O[C@H](CO)[C@@H](O)[C@H](O)[C@H]2O)[C@H](O)[C@@H](O)[C@@H]1O [Trehalose, α,α-trehalose]
- Relative conc. (%), Calcium gluconate ([1]; 16 h, 100 mg/ml): 112%
- Relative conc. (%), Calcium lactate ([1]; 16 h, 100 mg/ml): 129%
- increase of calcium concentration in the supernatant in comparison with control, calcium gluconate ([1]; 16 h, 100 mg/ml): 12%
- increase of calcium concentration in the supernatant in comparison with control, calcium lactate ([1]; 16 h, 100 mg/ml): 29%
- Amount of Fe2+ ion (mg/ml) After light-irradiation [2]: 4.4 mg/mL
- Amount of Fe2+ ion (mg/ml) Before light-irradiation [2]: 10.1 mg/mL
- Degree of coloring (Abs. at 420 nm) Preserved for 40 hrs [3, 6]: 0.311
- Degree of coloring (Abs. at 420 nm) Preserved for 96 hrs [3]: 0.380
- Degree of coloring (Abs. at 420 nm) Preserved for 40 hrs [3, 7]: 0.226

SMILES: [Cl][Cu] [Cuprous chloride, cuprous chloride dihydrate]
- Precipitation of crystal In the absence of trehalose [5, 8]: Precipitated
